System: phosphorylation of AMPK on threonine 172 and of ACC on serine 79
Assay: Western analysis of AMPK and ACC phosphorylation in CHO-HIR cells
Assay type: cell-based
Description: CHO-HIR mammalian cells were washed in PBS and incubated overnight in serum-free DMEM before treatment with 500 μM AICAR (positive control) or 12.5 μM, 25 μM or 50 μM resveratrol. Cells were harvested after 30 minutes and lysates were immediately boiled in SDS and subjected to Western analysis with site-specific antibodies. Phosphorylation of AMPK at Thr172 indicates activation of the kinase. Active AMPK phosphorylates and inactivates ACC at serine 79.
CHO cells were also treated with 500 μM AICAR (positive control), DMSO, 100 nM, 500 nM, 2.5 μM, 12.5 μM, 25 μM, or 50 μM resveratrol and subject to Western Blot analysis as described above. Western blots were stripped and re-probed for phosphorylated (active) AMPK, total AMPK, phosphorylated acetyl CoA carboxylase (ACC), which is the downstream target of AMPK, and tubulin, which served as a loading control.

How did the “activation of AMPK (phosphorylated AMPK and ACC)” value (CHO cells, 100 nM, 500 nM, 2.5, 12.5, 25 or 50 μM) turn out when Oc1ccc(/C=C/c2cc(O)cc(O)c2)cc1 [resveratrol, 3,5,4′-Trihydroxy-trans-stilbene] was run?
Its value is “activation of AMPK in CHO cells with increasing concentrations of resveratrol”.

And the “phosphorylation of AMPK (threonine 172) and ACC (serine 79)” value (resveratrol 12.5, 25 or 50 μM, AICAR 500 μM (positive control), 30 minutes, serum-free overnight)?
The value was “stimulates phosphorylation of AMPK and ACC”.
